Assay results from PMC6193938, “Characterization of a novel AICARFT inhibitor which potently elevates ZMP and has anti-tumor activity in murine models” (Scientific Reports, 2018).

Legend:
[1] = target: MTHFD2L (Homo sapiens, UniProt Q9H903); assay: Folate dependent enzyme assay, NADH (NAD(P)H-Glo); assay type: biochemical; settings: read-out: Positive Control, IC50
[2] = target: SHMT1 (Homo sapiens, UniProt P34896); assay: Folate dependent enzyme assay, glycine derivatized with Marfey's reagent (HPLC); assay type: biochemical; settings: read-out: Positive Control, IC50
Protocol: (§1) The human MTHFD2 (accession number: NM_006636.3) and MTHFD2L (accession number: NM_001144978.1) cDNAs were synthesized at GenScript. […] Bacterial BL21 (DE3) (Novagen) was used as an expression host, and protein purification is described in supplemental material.
(§2) Catalytic activity was assayed under the listed reaction conditions using a liquid chromatograph and either fluorescence or mass spectrometric detection as indicated. Reactions were carried out at RT for the reaction times given. The % response was fit to a four-parameter logistic equation using ACTIVITYBASE 4.0 to determine IC50 values.

[3] = target: ATIC (AICARFT) (Homo sapiens, UniProt P31939); assay: Folate dependent enzyme assay, conversion of ZMP to IMP (LC-MS); assay type: biochemical; settings: read-out: Positive Control, IC50
Protocol: as §1, §2

[4] = target: MTHFD2 (Homo sapiens, UniProt P13995); assay: Folate dependent enzyme assay, NADH (NAD(P)H-Glo); assay type: biochemical; settings: read-out: Positive Control, IC50
[5] = target: T1, MTHFD1 (Homo sapiens, UniProt P11586); assay: Folate dependent enzyme assay, NADPH (NAD(P)H-Glo); assay type: biochemical; settings: read-out: Positive Control, IC50
T1 construct: made in house; host or cells: E. coli BL21 (DE3)

[6] = test system: MDA-MB-231met2 and NCI-H460 tumors; assay: Tumor volume versus tumor ZMP levels, three parameter logistic fit; assay type: in vivo, mouse; settings: individual animal data after LSN3213128 treatment, read-out: IC50 of tumor ZMP level for tumor volume
Description: The levels of total AMPKα and P70S6K are also shown. […] The levels of total AMPKα are also shown. […] Full images and the croppings used in this figure are shown in Supplemental Figures S14–S21.
Tumor volume decreases with increasing ZMP; however, in these solid tumors there was no evidence for AMPK activation, either using AMPK phosphorylation at T172 or downstream measures at P70S6K T389. Salvage of purines in vivo may explain the absence of purine changes; therefore, we measured levels of hypoxanthine for mouse plasma to be 0.36 ± 0.02 μM (n = 5) which was lower than that reported by Slowiaczek et al.[23]. We also quantified hypoxanthine in human plasma, finding the levels were 2.07 ± 0.01 μM (n = 5), well within the 0.45–34 μM range reported in the literature[19],[23]–[29].

[7] = test system: A9 cells; assay: MS detection of ZMP and dUMP in cultured cells; assay type: cell-based, murine; settings: A9; data not shown
Protocol: To mimic human plasma levels, low folate media is traditionally used in which the folate comes only from the defined fetal bovine serum. […] Because LSN3213128 would be dosed in mice on normal diet, cell line screening was performed under standard tissue culture conditions to identify cell lines sensitive to treatment under high folate conditions. In order to compare tissue culture values with tumor levels, an average 4 pL cell volume[36] was used to calculate cellular ZMP concentrations. In MDA-MB-231[…] cells using regular RPMI, the peak intracellular ZMP levels are about 770 μM while in the salvage deficient A9 cells ZMP is 6,500 μM. […] It is not surprising that in vivo in mice on standard chow where folate plasma levels are >10-fold lower than tissue culture that tumor ZMP levels are also lower. […] ZMP was detected in cultured cells via mass spec analysis. Cells were plated in 96-well plates at 25,000 cells per well in 100 μL with either high or low folate RPMI media and incubated overnight at 37 °C with 5% CO2. Cells were treated with inhibitor compounds for 16 hours, 0.5% DMSO final concentration. Growth media was decanted and cells were lysed for 10 min at room temperature with 50 μL per well of 1x Sure Fire Lysis buffer (Perkin Elmer, SureFire kit component). […] Samples were sealed, vortexed for 5 minutes, and placed in the refrigerator for at least 30 minutes. The samples were centrifuged at 4 °C for 10 minutes at 16,600 g. 75 μL of the aqueous layer were transferred to a clean 96-well plate and seal prior to analysis. The LC-MS method utilizes a Shimadzu Prominence 20 A HPLC system connected to an AB Sciex 5500TM or an AB Sciex 6500TM triple quadrupole mass spectrometer. […] […] dUMP were detected using positive ion TurboIonSpray® multiple reaction monitoring mode and the data were processed with AB Sciex MultiQuantTM. Back-calculated ZMP concentrations were fit to a four-parameter logistic equation using ACTIVITYBASE 4.0 to determine EC50 values relative to the maximum observed metabolite levels.

[8] = test system: NCI-H460 (lung); assay: MS detection of ZMP in cultured cells; assay type: cell-based, human; settings: NCI-H460; data not shown
Protocol: Cells lines were acquired from cell banks, see supplemental material, grown using the cell banks recommended culture conditions (Supplemental Table 3). In some experiments noted “low folate” the cells were washed and grown in folate free RPMI-1640 media (Gibco #27016-021) supplemented with 5 ml 1 M Hepes, 5 ml 100 mM Na pyruvate, 2.5 mg/ml glucose and 10% defined FBS (Hyclone #SH30070) per 500 mL media for 5–7 days to deplete intracellular folate levels prior to the start of the experiment. Where noted, cells were maintained in complete “high folate” RPMI-1640 media (ATCC #30-2001) with 10% defined FBS to contrast with the low folate conditions.
ZMP was detected in cultured cells via mass spec analysis. Cells were plated in 96-well plates at 25,000 cells per well in 100 µL with either high or low folate RPMI media and incubated overnight at 37 °C with 5% CO2. Cells were treated with inhibitor compounds for 16 hours, 0.5% DMSO final concentration. Growth media was decanted and cells were lysed for 10 min at room temperature with 50 µL per well of 1x Sure Fire Lysis buffer (Perkin Elmer, SureFire kit component). Aliquots (40 µL) of standard or sample were combined in a deep 96-well plate with 160 µL of internal standard solution containing ^13C5-ZMP (custom synthesis) and ^13C5-AICAr (custom synthesis) at 100 ng/mL in 40 mM ammonium acetate, pH 4. 400 µL of dichloromethane was added to each sample. Samples were sealed, vortexed for 5 minutes, and placed in the refrigerator for at least 30 minutes. The samples were centrifuged at 4 °C for 10 minutes at 16,600 g. 75 µL of the aqueous layer were transferred to a clean 96-well plate and seal prior to analysis.
The LC-MS method utilizes a Shimadzu Prominence 20 A HPLC system connected to an AB Sciex 5500™ or an AB Sciex 6500™ triple quadrupole mass spectrometer. Extracted samples were separated using a Thermo Hypercarb™ Javelin guard column (2.1 × 20 mm, 5 µm) with an injection volume of 15 µL and a flow rate of 1 mL/minute.
ZMP, AICAr and dUMP were detected using positive ion TurboIonSpray® multiple reaction monitoring mode and the data were processed with AB Sciex MultiQuant™. Back-calculated ZMP concentrations were fit to a four-parameter logistic equation using ACTIVITYBASE 4.0 to determine EC50 values relative to the maximum observed metabolite levels.

Sequence of MTHFD2 (P13995 32-350): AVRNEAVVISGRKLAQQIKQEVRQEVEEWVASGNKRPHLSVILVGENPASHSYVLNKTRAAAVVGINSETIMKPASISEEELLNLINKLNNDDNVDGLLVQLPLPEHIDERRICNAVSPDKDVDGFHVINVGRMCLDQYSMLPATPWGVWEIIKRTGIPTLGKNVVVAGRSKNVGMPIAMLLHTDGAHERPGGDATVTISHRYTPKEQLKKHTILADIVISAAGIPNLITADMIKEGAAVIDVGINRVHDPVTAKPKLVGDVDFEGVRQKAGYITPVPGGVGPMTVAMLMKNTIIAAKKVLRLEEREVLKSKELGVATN
T1 sequence (P11586 whole entry): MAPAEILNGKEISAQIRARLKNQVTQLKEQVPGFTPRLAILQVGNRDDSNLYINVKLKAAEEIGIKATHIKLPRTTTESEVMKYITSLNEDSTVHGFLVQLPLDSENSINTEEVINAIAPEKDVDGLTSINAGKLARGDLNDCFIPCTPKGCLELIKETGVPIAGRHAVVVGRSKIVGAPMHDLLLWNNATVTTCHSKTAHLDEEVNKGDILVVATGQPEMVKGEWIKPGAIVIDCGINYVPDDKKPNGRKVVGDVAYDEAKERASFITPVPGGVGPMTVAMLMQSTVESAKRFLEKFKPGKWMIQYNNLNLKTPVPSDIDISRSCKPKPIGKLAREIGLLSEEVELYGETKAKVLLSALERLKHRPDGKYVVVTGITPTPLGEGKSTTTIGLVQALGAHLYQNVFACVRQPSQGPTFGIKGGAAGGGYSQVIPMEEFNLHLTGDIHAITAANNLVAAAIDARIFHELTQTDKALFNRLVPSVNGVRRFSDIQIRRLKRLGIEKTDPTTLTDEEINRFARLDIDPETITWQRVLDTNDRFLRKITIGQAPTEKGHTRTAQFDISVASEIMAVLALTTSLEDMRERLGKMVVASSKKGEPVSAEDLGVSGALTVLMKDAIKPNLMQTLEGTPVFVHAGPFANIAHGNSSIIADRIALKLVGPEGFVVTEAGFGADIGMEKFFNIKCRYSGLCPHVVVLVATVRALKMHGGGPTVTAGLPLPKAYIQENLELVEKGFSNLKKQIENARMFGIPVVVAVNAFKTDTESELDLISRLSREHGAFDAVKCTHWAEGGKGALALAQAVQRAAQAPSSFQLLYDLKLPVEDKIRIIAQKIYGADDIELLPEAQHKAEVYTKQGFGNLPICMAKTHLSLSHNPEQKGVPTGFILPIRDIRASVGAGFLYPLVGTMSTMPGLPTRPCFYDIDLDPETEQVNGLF
Sequence of ATIC (AICARFT) (P31939 whole entry): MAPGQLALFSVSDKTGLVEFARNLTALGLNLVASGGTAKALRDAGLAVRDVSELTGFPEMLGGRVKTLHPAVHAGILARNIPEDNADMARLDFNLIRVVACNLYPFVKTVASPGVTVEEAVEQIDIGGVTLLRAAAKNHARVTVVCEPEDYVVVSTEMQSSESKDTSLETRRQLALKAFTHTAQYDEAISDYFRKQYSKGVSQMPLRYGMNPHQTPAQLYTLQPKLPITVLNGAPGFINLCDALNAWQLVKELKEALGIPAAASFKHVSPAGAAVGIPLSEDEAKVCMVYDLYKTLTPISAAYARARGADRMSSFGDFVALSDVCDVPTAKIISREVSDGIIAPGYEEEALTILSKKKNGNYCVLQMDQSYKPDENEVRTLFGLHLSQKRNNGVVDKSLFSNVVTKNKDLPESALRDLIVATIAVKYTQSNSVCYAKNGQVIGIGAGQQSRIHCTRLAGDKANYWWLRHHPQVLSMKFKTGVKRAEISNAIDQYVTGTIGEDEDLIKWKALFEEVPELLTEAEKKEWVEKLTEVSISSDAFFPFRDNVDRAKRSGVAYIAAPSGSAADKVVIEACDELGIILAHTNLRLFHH
Sequence of SHMT1 (P34896 whole entry): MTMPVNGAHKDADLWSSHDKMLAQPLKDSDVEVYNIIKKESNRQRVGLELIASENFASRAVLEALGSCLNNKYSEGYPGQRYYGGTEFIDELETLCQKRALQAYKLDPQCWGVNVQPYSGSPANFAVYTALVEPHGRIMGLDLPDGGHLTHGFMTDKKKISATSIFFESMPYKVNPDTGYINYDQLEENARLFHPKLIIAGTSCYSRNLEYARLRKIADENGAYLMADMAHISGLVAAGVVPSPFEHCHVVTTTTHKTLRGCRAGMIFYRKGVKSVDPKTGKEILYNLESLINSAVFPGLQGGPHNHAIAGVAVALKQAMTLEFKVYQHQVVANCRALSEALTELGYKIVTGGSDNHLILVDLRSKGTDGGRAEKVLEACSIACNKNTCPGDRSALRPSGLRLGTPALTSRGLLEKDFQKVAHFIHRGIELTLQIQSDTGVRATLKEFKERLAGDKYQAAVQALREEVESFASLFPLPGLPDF
Sequence of MTHFD2L (Q9H903 46-347): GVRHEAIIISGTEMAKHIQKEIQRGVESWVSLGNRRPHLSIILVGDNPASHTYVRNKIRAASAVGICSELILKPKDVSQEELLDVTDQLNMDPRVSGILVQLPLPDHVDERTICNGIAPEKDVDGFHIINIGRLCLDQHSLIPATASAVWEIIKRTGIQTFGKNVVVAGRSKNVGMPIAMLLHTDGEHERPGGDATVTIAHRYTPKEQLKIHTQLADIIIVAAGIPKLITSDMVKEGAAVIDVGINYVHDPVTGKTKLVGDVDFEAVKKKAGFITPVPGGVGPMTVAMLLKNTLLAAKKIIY

For `Nc1nc2[nH]cc(CCCc3ccc(C(=O)N[C@@H](CCC(=O)O)C(=O)O)cc3)c2c(=O)[nH]1` [N-({4-[3-(2-AMINO-4-HYDROXY-7H-PYRROLO[2,3-D]PYRIMIDIN-5-YL)PROPYL]PHENYL}CARBONYL)-L-GLUTAMIC ACID], the IC50 [1] was 8.6 µM, the IC50 [2] was 10.1 µM and the IC50 [3] was 9.2 µM. It also gave an IC50 [4] of 1.4 µM and an IC50 [5] of 5.6 µM.
For `NC(=O)c1ncn([C@@H]2O[C@H](COP(=O)(O)O)[C@@H](O)[C@H]2O)c1N` [ZMP, 5-aminoimidazole 4-carboxamide ribonucleotide], the IC50 [6] was 108 ± 78 µM.
`Nc1nc2c(c(=O)[nH]1)C[C@@H](CCc1ccc(C(=O)N[C@@H](CCC(=O)O)C(=O)O)cc1)CN2` [lometrexol, reference compound] was tested, and the “effect on ZMP” value [7] was “inhibits ZMP” and the “effect on ZMP” value [8] was “inhibits ZMP”.
